# Data reported in patent US9790230B2 (Hoffmann-La Roche Inc., priority 2015, dated 2017).
# Where two headings read alike, the source gives them in different places.
# How the values were obtained:
# [1] = biological target: rat TAAR1 (Rattus norvegicus (Rat), UniProt Q923Y9); experiment: Radioligand binding assay on rat TAAR1;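 note: membranes from HEK293 cells stably transfected with rat TAAR1, tritiated TAAR1 radioligand, 1 h incubation at 4 °C, nonspecific binding determined with excess unlabeled ligand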
# Method: (§1) Membrane Preparation and Radioligand Binding.
# HEK-293 cells stably expressing rat TAAR1 were maintained at 37° C. and 5% CO2 in DMEM high glucose medium, containing fetal calf serum (10%, heat inactivated for 30 min at 56° C.), penicillin/streptomycin (1%), and 375 μg/ml geneticin (Gibco). Cells were released from culture flasks using trypsin/EDTA, harvested, washed twice with ice-cold PBS (without Ca^2+ and Mg^2+), pelleted at 1'000 rpm for 5 min at 4° C., frozen and stored at −80° C. Frozen pellets were suspended in 20 ml HEPES-NaOH (20 mM, pH 7.4) containing 10 mM EDTA and homogenized with a Polytron (PT 6000, Kinematica) at 14′000 rpm for 20 s. The homogenate was centrifuged at 48'000×g for 30 min at 4° C. Subsequently, the supernatant was removed and discarded, and the pellet resuspended in 20 ml HEPES-NaOH (20 mM, pH 7.4) containing 0.1 mM EDTA using the Polytron (20 s at 14'000 rpm). This procedure was repeated and the final pellet resuspended in HEPES-NaOH containing 0.1 mM EDTA and homogenized using the Polytron. Typically, aliquots of 2 ml membrane portions were stored at −80° C. With each new membrane batch the dissociation constant (Kd) was determined via a saturation curve. […] Nonspecific binding was defined as the amount of 3 [H]—(S)-4-[(ethyl-phenyl-amino)-methyl]-4,5-dihydro-oxazol-2-ylamine bound in the presence of 10 M unlabeled ligand. All compounds were tested at a broad range of concentrations (10 pM to 10 μM) in duplicates. […] The 96 deep well plates were incubated for 1 hr at 4° C. Incubations were terminated by rapid filtration through Unifilter-96 plates (Packard Instrument Company) and glass filters GF/C (Perkin Elmer) presoaked for 1 hr in polyethylenimine (0.3%) and washed 3 times with 1 ml of cold binding buffer. After addition of 45 μl of Microscint 40 (PerkinElmer) the Unifilter-96 plate was sealed and after 1 hr the radioactivity counted using a TopCount Microplate Scintillation Counter (Packard Instrument Company).
# [2] = biological target: mouse TAAR1 (Mus musculus (Mouse), UniProt Q923Y8); experiment: Radioligand binding assay on mouse TAAR1
# Method: Radioligand Binding Assay on Mouse TAAR1
# as §1
# HEK-293 cells stably expressing mouse TAAR1 were maintained at 37° C. and 5% CO2 in DMEM high glucose medium, containing fetal calf serum (10%, heat inactivated for 30 min at 56° C.), penicillin/streptomycin (1%), and 375 μg/ml geneticin (Gibco). Cells were released from culture flasks using trypsin/EDTA, harvested, washed twice with ice-cold PBS (without Ca^2+ and Mg^2+), pelleted at 1'000 rpm for 5 min at 4° C., frozen and stored at −80° C. Frozen pellets were suspended in 20 ml HEPES-NaOH (20 mM, pH 7.4) containing 10 mM EDTA and homogenized with a Polytron (PT 6000, Kinematica) at 14'000 rpm for 20 s. The homogenate was centrifuged at 48'000×g for 30 min at 4° C. Subsequently, the supernatant was removed and discarded, and the pellet resuspended in 20 ml HEPES-NaOH (20 mM, pH 7.4) containing 0.1 mM EDTA using the Polytron (20 s at 14'000 rpm). This procedure was repeated and the final pellet resuspended in HEPES-NaOH containing 0.1 mM EDTA and homogenized using the Polytron. Typically, aliquots of 2 ml membrane portions were stored at −80° C. With each new membrane batch the dissociation constant (Kd) was determined via a saturation curve. The TAAR1 radioligand ^3[H]—(S)-4-[(ethyl-phenyl-amino)-methyl]-4,5-dihydro-oxazol-2-ylamine (described in WO 2008/098857) was used at a concentration equal to the calculated Kd value, that was usually around 0.7 nM, resulting in the binding of approximately 0.5% of the radioligand and a specific binding representing approximately 70% of the total binding. Nonspecific binding was defined as the amount of ^3[H]—(S)-4-[(ethyl-phenyl-amino)-methyl]-4,5-dihydro-oxazol-2-ylamine bound in the presence of 10 M unlabeled ligand. All compounds were tested at a broad range of concentrations (10 pM to 10 μM) in duplicates. […] The 96 deep well plates were incubated for 1 hr at 4° C. Incubations were terminated by rapid filtration through Unifilter-96 plates (Packard Instrument Company) and glass filters GF/C (Perkin Elmer) presoaked for 1 hr in polyethylenimine (0.3%) and washed 3 times with 1 ml of cold binding buffer. After addition of 45 μl of Microscint 40 (PerkinElmer) the Unifilter-96 plate was sealed and after 1 hr the radioactivity counted using a TopCount Microplate Scintillation Counter (Packard Instrument Company).
# [3] = read-out: Ki (μM) rat, rat TAAR1, HEK-293 membranes, second value of cell mouse/rat
# [4] = read-out: Ki (μM) mouse, mouse TAAR1, HEK-293 membranes, first value of cell mouse/rat
# Chain of mouse TAAR1 (Q923Y8 whole entry): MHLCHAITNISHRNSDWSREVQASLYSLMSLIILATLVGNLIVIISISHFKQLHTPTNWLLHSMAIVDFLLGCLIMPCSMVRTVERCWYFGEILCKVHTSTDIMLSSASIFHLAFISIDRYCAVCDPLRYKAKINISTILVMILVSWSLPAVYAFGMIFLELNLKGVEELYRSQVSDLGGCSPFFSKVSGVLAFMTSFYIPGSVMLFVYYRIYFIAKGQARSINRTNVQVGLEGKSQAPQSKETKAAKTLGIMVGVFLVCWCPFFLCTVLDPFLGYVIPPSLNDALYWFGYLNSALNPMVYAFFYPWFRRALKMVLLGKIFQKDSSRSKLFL
# Chain of rat TAAR1 (Q923Y9 whole entry): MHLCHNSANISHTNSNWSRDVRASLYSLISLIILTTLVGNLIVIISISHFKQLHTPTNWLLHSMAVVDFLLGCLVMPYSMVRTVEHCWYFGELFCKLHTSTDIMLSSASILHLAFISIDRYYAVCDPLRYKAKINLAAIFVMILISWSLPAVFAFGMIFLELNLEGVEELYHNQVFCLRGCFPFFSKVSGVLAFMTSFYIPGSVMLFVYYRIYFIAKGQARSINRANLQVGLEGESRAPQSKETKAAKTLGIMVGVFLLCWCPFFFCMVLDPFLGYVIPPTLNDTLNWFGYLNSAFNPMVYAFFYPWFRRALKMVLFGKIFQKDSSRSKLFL
Compound,Ki [1],Ki [2],also measured
"O=C(Nc1ccc([C@H]2O[C@@H]3CN[C@H]2C3)cc1)c1ccnc(C(F)(F)F)c1 [Example 25, N-[4-[(1S,3R,4S)-2-Oxa-5-azabicyclo[2.2.1]heptan-3-yl]phenyl]-2-(trifluoromethyl)pyridine-4-carboxamide]",0.327 µM,0.0224 µM,
"CC(C)c1n[nH]c(C(=O)Nc2ccc([C@@H]3O[C@H]4CN[C@@H]3C4)cc2)c1F [Example 103, 4-Fluoro-3-isopropyl-N-[4-[(1R,3S,4R)-2-oxa-5-azabicyclo[2.2.1]heptan-3-yl]phenyl]-11H-pyrazole-5-carboxamide]",,,"Ki [1, 3]: 0.0405 µM; Ki [2, 4]: 0.0096 µM"
"FC(F)(F)c1ccc(Nc2ccc([C@H]3O[C@@H]4CN[C@H]3C4)cc2)cn1 [Example 61, N-[4-[(1S,3R,4S)-2-Oxa-5-azabicyclo[2.2.1]heptan-3-yl]phenyl]-6-(trifluoromethyl)pyridin-3-amine]",0.715 µM,0.0077 µM,
"O=C(Nc1ccc([C@@H]2O[C@H]3CN[C@@H]2C3)cc1)c1ccnc(C(F)(F)F)c1 [Example 26, N-[4-[(1R,3S,4R)-2-Oxa-5-azabicyclo[2.2.1]heptan-3-yl]phenyl]-2-(trifluoromethyl)pyridine-4-carboxamide]",0.137 µM,0.0223 µM,
CCN(C[C@H]1COC(N)=N1)c1ccccc1 [reference compound],,,"Kd ([1]; read-out: dissociation constant (Kd) of the TAAR1 radioligand, rat TAAR1 membranes, saturation curve, usual value): ~2.3 nM; Kd ([2]; read-out: dissociation constant (Kd) of the TAAR1 radioligand, mouse TAAR1 membranes, saturation curve, usual value): ~0.7 nM"
"O=C(Nc1ccc([C@@H]2O[C@H]3CN[C@@H]2C3)cc1)c1ccc(OCC2CC2)cc1 [Example 12, 4-(Cyclopropylmethoxy)-N-[4-[(1R,3S,4R)-2-oxa-5-azabicyclo[2.2.1]heptan-3-yl]phenyl]benzamide]",0.134 µM,0.0067 µM,
"CCOc1ccc(NC(=O)c2ccc([C@@H]3O[C@H]4CN[C@@H]3C4)cc2)cc1 [Example 88, N-(4-Ethoxyphenyl)-4-[(1R,3S,4R)-2-oxa-5-azabicyclo[2.2.1]heptan-3-yl]benzamide]",> 1.45 µM,0.0255 µM,
"FC(F)(F)COc1nccc(Nc2ccc([C@@H]3O[C@H]4CN[C@@H]3C4)cc2)n1 [Example 83, N-[4-[(1R,3S,4R)-2-Oxa-5-azabicyclo[2.2.1]heptan-3-yl]phenyl]-2-(2,2,2-trifluoroethoxy)pyrimidin-4-amine]",0.19 µM,0.0097 µM,
"O=C(NCc1ccc(Cl)cc1)c1ccc([C@H]2O[C@@H]3CN[C@H]2C3)cc1 [Example 64, N-[(4-Chlorophenyl)methyl]-4-[(1S,3R,4S)-2-oxa-5-azabicyclo[2.2.1]heptan-3-yl]benzamide]",1.6 µM,0.0033 µM,
"CCc1ncc(C(=O)Nc2ccc([C@H]3O[C@@H]4CN[C@H]3C4)cc2)cn1 [Example 34, 2-Ethyl-N-[4-[(1S,3R,4S)-2-oxa-5-azabicyclo[2.2.1]heptan-3-yl]phenyl]pyrimidine-5-carboxamide]",0.457 µM,0.0563 µM,
"FC(F)(F)c1cc(Nc2ccc([C@H]3O[C@@H]4CN[C@H]3C4)cc2)ccn1 [Example 35, N-[4-[(1S,3R,4S)-2-Oxa-5-azabicyclo[2.2.1]heptan-3-yl]phenyl]-2-(trifluoromethyl)pyridin-4-amine]",0.819 µM,0.011 µM,
"O=C(Nc1ccc(Br)cc1)c1ccc([C@@H]2O[C@H]3CN[C@@H]2C3)cc1 [Example 86, N-(4-Bromophenyl)-4-[(1R,3S,4R)-2-oxa-5-azabicyclo[2.2.1]heptan-3-yl]benzamide]",0.809 µM,0.0102 µM,
"CCCCc1n[nH]c(C(=O)Nc2ccc([C@@H]3O[C@H]4CN[C@@H]3C4)cc2)c1F [Example 92, 3-Butyl-4-fluoro-N-[4-[(1R,3S,4R)-2-oxa-5-azabicyclo[2.2.1]heptan-3-yl]phenyl]-111H-pyrazole-5-carboxamide]",,,"Ki [1, 3]: 0.0879 µM; Ki [2, 4]: 0.0033 µM"
"O=C(Nc1ccc([C@@H]2O[C@H]3CN[C@@H]2C3)cc1)c1ccc(C(F)(F)F)nc1 [Example 72, N-[4-[(1R,3S,4R)-2-Oxa-5-azabicyclo[2.2.1]heptan-3-yl]phenyl]-6-(trifluoromethyl)pyridine-3-carboxamide]",0.0093 µM,0.0153 µM,
"FC(F)(F)c1ccc(CNc2ccc([C@H]3O[C@@H]4CN[C@H]3C4)cc2)cc1 [Example 39, 4-[(1S,3R,4S)-2-Oxa-5-azabicyclo[2.2.1]heptan-3-yl]-N-[[4-(trifluoromethyl)phenyl]methyl]aniline]",0.359 µM,0.0069 µM,
"O=C(Nc1ccc(Cl)nc1)c1ccc([C@@H]2O[C@H]3CN[C@@H]2C3)cc1 [Example 94, N-(6-Chloro-3-pyridyl)-4-[(1R,3S,4R)-2-oxa-5-azabicyclo[2.2.1]heptan-3-yl]benzamide]",> 1.45 µM,0.0251 µM,
"O=C(COCCC(F)(F)F)Nc1ccc([C@@H]2O[C@H]3CN[C@@H]2C3)cc1 [Example 90, N-[4-[(1R,3S,4R)-2-Oxa-5-azabicyclo[2.2.1]heptan-3-yl]phenyl]-2-(3,3,3-trifluoropropoxy)acetamide]",0.398 µM,0.015 µM,

Compound,Ki [1],Ki [2],also measured
"O=C(NCc1ccc(C(F)(F)F)cc1)c1ccc([C@@H]2O[C@H]3CN[C@@H]2C3)cc1 [Example 96, 4-[(1R,3S,4R)-2-Oxa-5-azabicyclo[2.2.1]heptan-3-yl]-N-[[4-(trifluoromethyl)phenyl]methyl]benzamide]",> 1.45 µM,0.0477 µM,
"CCCc1n[nH]c(C(=O)Nc2ccc([C@@H]3O[C@H]4CN[C@@H]3C4)cc2)c1F [Example 78, 4-Fluoro-N-[4-[(1R,3S,4R)-2-oxa-5-azabicyclo[2.2.1]heptan-3-yl]phenyl]-3-propyl-1H-pyrazole-5-carboxamide]",0.103 µM,0.0042 µM,
"CCOc1ccc(C(=O)Nc2ccc([C@H]3O[C@@H]4CN[C@H]3C4)cc2)cn1 [Example 15, 6-Ethoxy-N-[4-[(1S,3R,4S)-2-oxa-5-azabicyclo[2.2.1]heptan-3-yl]phenyl]pyridine-3-carboxamide]",1.9 µM,0.0155 µM,
"CCOc1ccc(NC(=O)c2ccc([C@@H]3O[C@H]4CN[C@@H]3C4)cc2)cn1 [Example 95, N-(6-Ethoxy-3-pyridyl)-4-[(1R,3S,4R)-2-oxa-5-azabicyclo[2.2.1]heptan-3-yl]benzamide]",> 1.45 µM,0.0613 µM,
"FC(F)(F)COc1nccc(Nc2ccc([C@H]3O[C@@H]4CN[C@H]3C4)cc2)n1 [Example 80, N-[4-[(1S,3R,4S)-2-Oxa-5-azabicyclo[2.2.1]heptan-3-yl]phenyl]-2-(2,2,2-trifluoroethoxy)pyrimidin-4-amine]",1.08 µM,0.0077 µM,
"FC(F)(F)c1cnc(Nc2ccc([C@H]3O[C@@H]4CN[C@H]3C4)cc2)cn1 [Example 22, N-[4-[(1S,3R,4S)-2-Oxa-5-azabicyclo[2.2.1]heptan-3-yl]phenyl]-5-(trifluoromethyl)pyrazin-2-amine]",0.34 µM,0.0076 µM,
"O=C(Nc1ccc([C@@H]2O[C@H]3CN[C@@H]2C3)cc1)c1cccc(Cl)c1 [Example 10, 3-Chloro-N-[4-[(1R,3S,4R)-2-oxa-5-azabicyclo[2.2.1]heptan-3-yl]phenyl]benzamide]",0.055 µM,0.0042 µM,
"O=C(Nc1ccc([C@H]2O[C@@H]3CN[C@H]2C3)cc1)c1ccc(OCC(F)(F)F)nc1 [Example 16, N-[4-[(1S,3R,4S)-2-Oxa-5-azabicyclo[2.2.1]heptan-3-yl]phenyl]-6-(2,2,2-trifluoroethoxy)pyridine-3-carboxamide]",0.142 µM,0.0118 µM,
"CC(C)c1cc(C(=O)Nc2ccc([C@H]3O[C@@H]4CN[C@H]3C4)cc2)[nH]n1 [Example 43, 3-Isopropyl-N-[4-[(1S,3R,4S)-2-oxa-5-azabicyclo[2.2.1]heptan-3-yl]phenyl]-1H-pyrazole-5-carboxamide]",0.167 µM,0.0144 µM,
"c1ccc([C@H]2O[C@@H]3CN[C@H]2C3)nc1 [Example 105, (1S,3S,4S)-3-(2-Pyridyl)-2-oxa-5-azabicyclo[2.2.1]heptane]",0.324 µM,0.0465 µM,
"O=C(Nc1ccc(Cl)cc1)Nc1cccc([C@@H]2O[C@H]3CN[C@@H]2C3)c1 [Example 4, 1-(4-Chlorophenyl)-3-[3-[(1R,3S,4R)-2-oxa-5-azabicyclo[2.2.1]heptan-3-yl]phenyl]urea]",0.0102 µM,1.28 µM,
"O=C(Nc1ccc(F)cc1)c1ccc([C@@H]2O[C@H]3CN[C@@H]2C3)cc1 [Example 87, N-(4-Fluorophenyl)-4-[(1R,3S,4R)-2-oxa-5-azabicyclo[2.2.1]heptan-3-yl]benzamide]",> 1.45 µM,0.145 µM,
"Cc1c(C2CC2)n[nH]c1C(=O)Nc1ccc([C@@H]2O[C@H]3CN[C@@H]2C3)cc1 [Example 69, 3-Cyclopropyl-4-methyl-N-[4-[(1R,3S,4R)-2-oxa-5-azabicyclo[2.2.1]heptan-3-yl]phenyl]-1H-pyrazole-5-carboxamide]",0.153 µM,0.0066 µM,
"c1ccc([C@@H]2O[C@H]3CN[C@@H]2C3)nc1 [Example 104, (1R,3R,4R)-3-(2-Pyridyl)-2-oxa-5-azabicyclo[2.2.1]heptane]",> 1.5 µM,> 1.49 µM,
"O=C(Nc1ccc([C@H]2O[C@@H]3CN[C@H]2C3)cc1)c1ccc(OCC2CC2)cc1 [Example 32, 4-(Cyclopropylmethoxy)-N-[4-[(1S,3R,4S)-2-oxa-5-azabicyclo[2.2.1]heptan-3-yl]phenyl]benzamide]",0.164 µM,0.0063 µM,
"CCc1n[nH]c(C(=O)Nc2ccc([C@@H]3O[C@H]4CN[C@@H]3C4)cc2)c1Br [Example 99, 4-Bromo-3-ethyl-N-[4-[(1R,3S,4R)-2-oxa-5-azabicyclo[2.2.1]heptan-3-yl]phenyl]-1H-pyrazole-5-carboxamide]",0.127 µM,0.0035 µM,
"CCOc1ccc(NC(=O)c2ccc([C@H]3O[C@@H]4CN[C@H]3C4)cc2)cn1 [Example 62, N-(6-Ethoxy-3-pyridyl)-4-[(1S,3R,4S)-2-oxa-5-azabicyclo[2.2.1]heptan-3-yl]benzamide]",0.107 µM,0.0049 µM,
